According to ChEMBL document CHEMBL1201862, “PubChem BioAssay data set” (2004):
Activity calls are given as the source filed them.

Experiments:
[1] = test system: HEK293; assay: viability loss in HEK293T cells – cell-based, ATP luminescence, cherry-pick samples, cytotoxicity control, dose response (AID 687005); type: functional; conditions: Homo sapiens;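 also: cells exposed to compound for 48 hours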
[2] = HEK293 Cytotoxicity Assay Measured in Cell-Based System Using Plate Reader - 7071-01_Inhibitor_Dose_CherryPick_Activity_Set2.; type: functional
[3] = molecular target: T1, Oxysterols receptor LXR-beta (Homo sapiens, UniProt P55055); type: functional, cell-based;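 also: agonist activity at LXR measured by a cell-based luminescence readout across a dose range, run as a counterscreen for daf-12 agonists; HEK293 cells with Gal4-LXR fusion and GAL4-driven luciferase reporter; potency for activation of Gal4-LXR reporter so compounds are agonists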
T1 sequence (P55055 whole entry): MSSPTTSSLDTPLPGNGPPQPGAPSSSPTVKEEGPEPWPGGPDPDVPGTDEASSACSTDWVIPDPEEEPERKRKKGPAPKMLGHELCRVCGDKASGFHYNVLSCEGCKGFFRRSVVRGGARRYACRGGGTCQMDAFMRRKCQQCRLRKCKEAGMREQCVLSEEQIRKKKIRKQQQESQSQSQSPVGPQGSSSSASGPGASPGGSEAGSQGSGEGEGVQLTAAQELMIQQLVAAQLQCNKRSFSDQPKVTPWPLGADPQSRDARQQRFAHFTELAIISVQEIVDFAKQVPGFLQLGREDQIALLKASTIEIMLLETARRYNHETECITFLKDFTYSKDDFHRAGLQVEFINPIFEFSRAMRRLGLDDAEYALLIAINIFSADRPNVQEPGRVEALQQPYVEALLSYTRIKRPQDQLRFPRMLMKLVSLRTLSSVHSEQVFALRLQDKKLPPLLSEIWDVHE

[4] = molecular target: T2, SUMO-activating enzyme (Homo sapiens, UniProt Q9UBT2); assay: blockers of UBC9-mediated SUMO conjugation – biochemical, AlphaScreen, SUMOylation inhibitor project, confirmation (AID 2018); type: functional
[5] = molecular target: Luciferin 4-monooxygenase (Photinus pyralis, UniProt P08659); assay: inhibition of purified Photinus pyralis luciferase – biochemical, luminescence, dose response (AID 1891)
[6] = Luminescence Cell-Based Dose Confirmation HTS to Identify Inhibitors of Platelet Dense Granule Release. [Related pubchem assays: 1663 (Primary HTS), 1678 (Summary of Project)]; type: functional
[7] = molecular target: T2, SUMO-activating enzyme; assay: blockers of SAE1/SAE2–UBC9 SUMO transfer – biochemical, HTRF, uHTS, primary screen (AID 2006); type: protein-complex assay
[8] = molecular target: Heat shock protein HSP 90-alpha (Homo sapiens, UniProt P07900); type: functional, organism-based
[9] = molecular target: 1-phosphatidylinositol 4,5-bisphosphate phosphodiesterase gamma-1 (Homo sapiens, UniProt P19174); assay: Counterscreen for inhibitors of phospholipase C isozymes (PLC-B3): Fluorescence-based biochemical high throughput dose response assay to identify inhibitors of phospholipase C isozymes (PLC-gamma1).
[10] = molecular target: 1-phosphatidylinositol 4,5-bisphosphate phosphodiesterase beta-3 (Homo sapiens, UniProt Q01970); assay: Fluorescence-based biochemical high throughput dose response assay to identify inhibitors of phospholipase C isozymes (PLC-B3).
Sequence of 1-phosphatidylinositol 4,5-bisphosphate phosphodiesterase beta-3 (Q01970 whole entry): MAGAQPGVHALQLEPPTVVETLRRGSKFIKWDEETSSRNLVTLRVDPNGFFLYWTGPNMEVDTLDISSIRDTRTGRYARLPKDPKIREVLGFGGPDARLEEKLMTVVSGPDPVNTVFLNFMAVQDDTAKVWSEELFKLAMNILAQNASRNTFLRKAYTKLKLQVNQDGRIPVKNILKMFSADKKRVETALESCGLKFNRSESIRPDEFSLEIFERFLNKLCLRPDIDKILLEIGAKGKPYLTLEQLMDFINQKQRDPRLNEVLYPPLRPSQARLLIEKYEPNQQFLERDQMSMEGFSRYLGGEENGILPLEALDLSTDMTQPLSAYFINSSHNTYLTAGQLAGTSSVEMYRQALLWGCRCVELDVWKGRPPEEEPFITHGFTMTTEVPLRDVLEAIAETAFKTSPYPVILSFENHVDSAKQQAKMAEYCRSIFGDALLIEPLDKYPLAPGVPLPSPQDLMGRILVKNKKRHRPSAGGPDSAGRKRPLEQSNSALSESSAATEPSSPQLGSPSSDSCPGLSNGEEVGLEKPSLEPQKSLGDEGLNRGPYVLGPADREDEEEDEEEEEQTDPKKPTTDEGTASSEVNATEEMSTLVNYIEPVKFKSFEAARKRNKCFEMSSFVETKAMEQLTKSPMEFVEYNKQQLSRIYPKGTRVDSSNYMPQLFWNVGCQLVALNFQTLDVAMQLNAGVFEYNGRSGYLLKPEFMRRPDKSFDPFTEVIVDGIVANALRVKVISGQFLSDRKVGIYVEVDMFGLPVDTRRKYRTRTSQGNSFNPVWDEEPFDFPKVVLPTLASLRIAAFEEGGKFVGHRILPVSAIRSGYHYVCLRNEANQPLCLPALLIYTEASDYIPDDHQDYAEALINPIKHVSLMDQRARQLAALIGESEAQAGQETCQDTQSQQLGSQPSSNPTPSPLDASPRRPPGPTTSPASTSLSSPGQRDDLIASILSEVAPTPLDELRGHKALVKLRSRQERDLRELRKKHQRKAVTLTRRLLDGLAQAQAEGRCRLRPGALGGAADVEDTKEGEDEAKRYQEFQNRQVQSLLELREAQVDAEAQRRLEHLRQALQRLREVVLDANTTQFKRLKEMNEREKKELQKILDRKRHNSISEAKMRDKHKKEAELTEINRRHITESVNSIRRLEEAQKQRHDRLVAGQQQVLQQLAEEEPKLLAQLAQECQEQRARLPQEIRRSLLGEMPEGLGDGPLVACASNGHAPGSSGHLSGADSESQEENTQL

T2 sequence (Q9UBE0 whole entry): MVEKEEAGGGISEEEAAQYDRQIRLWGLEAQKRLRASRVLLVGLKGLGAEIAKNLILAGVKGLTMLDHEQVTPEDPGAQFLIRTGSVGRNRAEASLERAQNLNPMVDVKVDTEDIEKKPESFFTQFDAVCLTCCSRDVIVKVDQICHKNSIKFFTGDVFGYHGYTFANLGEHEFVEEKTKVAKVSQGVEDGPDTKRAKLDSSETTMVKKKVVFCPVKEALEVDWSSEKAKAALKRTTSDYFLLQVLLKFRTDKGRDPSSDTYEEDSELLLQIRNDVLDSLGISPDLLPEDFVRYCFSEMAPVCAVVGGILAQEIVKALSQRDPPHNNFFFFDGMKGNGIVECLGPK
T2 sequence (Q9UBT2 whole entry): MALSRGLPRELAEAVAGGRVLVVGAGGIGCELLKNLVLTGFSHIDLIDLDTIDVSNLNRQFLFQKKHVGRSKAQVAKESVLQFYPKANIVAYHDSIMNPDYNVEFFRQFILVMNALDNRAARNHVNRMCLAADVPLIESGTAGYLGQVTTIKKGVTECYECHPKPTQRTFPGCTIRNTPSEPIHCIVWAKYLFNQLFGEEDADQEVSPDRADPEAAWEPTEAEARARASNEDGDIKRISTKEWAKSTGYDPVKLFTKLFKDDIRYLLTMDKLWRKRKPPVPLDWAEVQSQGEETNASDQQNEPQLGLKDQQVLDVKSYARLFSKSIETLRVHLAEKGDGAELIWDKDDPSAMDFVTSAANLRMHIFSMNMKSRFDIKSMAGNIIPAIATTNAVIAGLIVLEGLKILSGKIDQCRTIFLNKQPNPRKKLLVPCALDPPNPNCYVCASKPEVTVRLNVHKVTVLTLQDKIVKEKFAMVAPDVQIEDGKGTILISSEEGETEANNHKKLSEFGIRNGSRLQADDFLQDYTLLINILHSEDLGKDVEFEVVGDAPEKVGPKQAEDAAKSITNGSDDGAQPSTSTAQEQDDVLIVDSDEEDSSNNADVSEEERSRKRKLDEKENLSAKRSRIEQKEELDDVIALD
Sequence of 1-phosphatidylinositol 4,5-bisphosphate phosphodiesterase gamma-1 (P19174 whole entry): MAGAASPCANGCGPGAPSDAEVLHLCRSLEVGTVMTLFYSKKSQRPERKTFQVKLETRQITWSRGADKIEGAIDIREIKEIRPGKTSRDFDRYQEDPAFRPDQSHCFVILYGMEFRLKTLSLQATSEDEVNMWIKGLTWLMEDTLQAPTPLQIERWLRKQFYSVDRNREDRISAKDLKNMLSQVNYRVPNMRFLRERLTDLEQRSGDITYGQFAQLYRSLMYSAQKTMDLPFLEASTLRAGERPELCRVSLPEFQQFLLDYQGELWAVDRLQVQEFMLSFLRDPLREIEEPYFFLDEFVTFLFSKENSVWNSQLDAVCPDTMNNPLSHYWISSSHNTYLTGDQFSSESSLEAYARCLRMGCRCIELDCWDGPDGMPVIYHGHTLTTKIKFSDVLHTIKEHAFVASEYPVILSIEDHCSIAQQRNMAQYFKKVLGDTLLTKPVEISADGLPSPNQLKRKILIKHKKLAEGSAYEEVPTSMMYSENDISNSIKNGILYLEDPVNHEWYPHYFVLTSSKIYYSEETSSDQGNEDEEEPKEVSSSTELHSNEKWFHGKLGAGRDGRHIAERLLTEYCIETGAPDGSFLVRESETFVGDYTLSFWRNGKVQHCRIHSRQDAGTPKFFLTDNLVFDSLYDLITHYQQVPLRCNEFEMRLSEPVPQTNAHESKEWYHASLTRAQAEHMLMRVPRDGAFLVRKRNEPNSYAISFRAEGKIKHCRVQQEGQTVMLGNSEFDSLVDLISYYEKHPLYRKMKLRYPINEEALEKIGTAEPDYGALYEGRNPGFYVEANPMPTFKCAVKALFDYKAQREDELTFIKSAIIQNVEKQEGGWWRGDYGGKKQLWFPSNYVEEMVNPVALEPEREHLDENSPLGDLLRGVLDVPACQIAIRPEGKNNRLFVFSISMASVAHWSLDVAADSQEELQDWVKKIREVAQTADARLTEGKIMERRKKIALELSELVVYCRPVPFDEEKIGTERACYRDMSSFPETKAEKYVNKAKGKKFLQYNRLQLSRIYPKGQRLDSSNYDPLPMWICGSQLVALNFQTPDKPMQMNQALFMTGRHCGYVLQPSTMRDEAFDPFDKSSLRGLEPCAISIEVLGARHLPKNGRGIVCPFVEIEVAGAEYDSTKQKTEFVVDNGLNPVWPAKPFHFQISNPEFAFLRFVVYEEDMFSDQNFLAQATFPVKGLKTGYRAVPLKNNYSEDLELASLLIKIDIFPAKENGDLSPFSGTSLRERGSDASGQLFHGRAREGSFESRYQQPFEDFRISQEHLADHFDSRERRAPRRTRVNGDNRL
Sequence of Luciferin 4-monooxygenase (P08659 whole entry): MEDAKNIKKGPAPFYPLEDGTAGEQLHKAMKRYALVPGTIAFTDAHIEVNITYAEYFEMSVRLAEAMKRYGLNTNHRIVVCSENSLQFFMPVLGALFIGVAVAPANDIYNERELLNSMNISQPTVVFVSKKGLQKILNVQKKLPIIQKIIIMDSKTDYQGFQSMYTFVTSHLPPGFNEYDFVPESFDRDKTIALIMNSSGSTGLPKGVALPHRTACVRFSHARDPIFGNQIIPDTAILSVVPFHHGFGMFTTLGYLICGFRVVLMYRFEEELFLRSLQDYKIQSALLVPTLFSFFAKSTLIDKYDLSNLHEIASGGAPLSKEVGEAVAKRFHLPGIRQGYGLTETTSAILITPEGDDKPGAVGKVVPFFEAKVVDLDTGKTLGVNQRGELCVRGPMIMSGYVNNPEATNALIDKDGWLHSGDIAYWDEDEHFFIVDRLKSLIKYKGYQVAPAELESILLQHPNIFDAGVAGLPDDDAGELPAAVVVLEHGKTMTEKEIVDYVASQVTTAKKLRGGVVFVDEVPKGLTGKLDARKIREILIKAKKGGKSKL

In the case of O=C(Nc1ccccc1)N1CCCCN2[C@H](C1)[C@H](c1ccc(C#CC3CC3)cc1)[C@@H]2CO, the AC50 [1] is reported as 40.1 µM (active) and the AC50 [2] is reported as 40.1 µM (active).

In the case of Cc1ccc2nc(C)/c(=N\O)c(C)nc2c1, the EC50 [3] is reported as > 67.6 µM (inactive).

With Nc1ncnc2c1ncn2[C@@H]1O[C@H](COP(=O)(O)O)[C@@H](O)[C@@H]1O the IC50 [4] was 7.95 µM (active), the EC50 [5] was 1.08 µM (active) and the EC50 [6] was 0.946 µM (active). The IC50 [7] was 16.6 µM (active), the AC50 [8] was 1.92 µM (active) and the IC50 [9] was 8.71 µM (active). The IC50 [10] was > 122 µM (inactive).
